{
  "source": "patent US9370511B2",
  "about": "“Morphinan-derivatives for treating diabetes and related disorders” (priority 2011, dated 2016)",
  "key": {"[1]": {"test_system": "children with severe bacterial meningitis", "conditions": "36 mg kg^−1 day^−1; two children, also on glucocorticoids; cited from earlier work"}, "[2]": {"test_system": "male subjects with type 2 diabetes mellitus", "assay": "Clinical trial, oral single dose followed by oral glucose tolerance test (OGTT)", "format": "in vivo, human", "method": "The study was designed as a randomized, double-blind, placebo-controlled crossover study to investigate the glucose lowering effect of oral single doses of DXM 270 mg (FIG. 10) and DXM 60 mg (FIG. 11) vs. placebo in subjects with T2DM following an oral glucose tolerance test (OGTT). DXM 270 mg, DXM 60 mg or placebo was administered orally at 0 minutes. OGTT was started at 60 minutes (75 g glucose orally). Blood glucose levels were measured at the indicated times. n=20 male with T2DM on a stable regimen of metformin monotherapy, between 45 and 70 years of age, with a BMI between 25 and 35 kg/m2, HbA1c between 7 and 8%. Student's t-test. *p=0.01, **p<0.001All values are means±SD."}, "[3]": {"test_system": "mouse pancreatic islets", "assay": "Insulin secretion from mouse pancreatic islets at low and high glucose", "format": "cell-based", "conditions": "comparison of DXO, DXM and LEV", "method": "(§1) Mouse pancreatic islets were treated with a low, non-stimulatory glucose concentration (2.5 mM) or a high, stimulatory glucose concentration (25 mM) in the absence or presence of 1 μM or 10 μM dextrorphan. Insulin secretion was determined as percent of […] glucose control, and values are expressed as means+/−SD (N=3). The asterisks (*) indicate p values smaller than 0.05 in Student's t-tests.\nLow Glucose (2.5 mM); High Glucose (25 mM); p<0.05 (Student's t-Test), N=3.\nExample 1 was repeated in order to compare dextrorphan, dextromethorphan, and levorphanol with one another."}, "[4]": {"test_system": "painful diabetic neuropathy", "conditions": "in vivo; cited from earlier work"}, "[5]": {"test_system": "db/db mouse (an animal model for human type 2 diabetes mellitus)", "assay": "Long-term treatment of db/db mice with dextromethorphan in drinking water", "format": "in vivo", "excerpt": "Therefore, long-term treatment with dextromethorphan is beneficial for beta cell function and blood glucose control in a mouse model for human type 2 diabetes mellitus."}, "[6]": {"test_system": "diabetics", "conditions": "long-term experience; cited from earlier work"}, "[7]": {"test_system": "human pancreatic islets", "assay": "Insulin secretion from human pancreatic islets at low and high glucose", "format": "cell-based", "conditions": "1 μM; low glucose 2 mM vs high glucose 20 mM", "method": "as §1\nExample 1 was repeated but the mouse pancreatic islets were replaced by human pancreatic islets.\nLow Glucose (2 mM); High Glucose (20 mM); the asterisks (*) indicate p values smaller than 0.05 in Student's t-tests."}, "[8]": {"conditions": "3 mg/ml in drinking water, 8 weeks, compared to low dose 1 mg/ml"}},
  "note": "Entries after “also recorded” stand apart in the source; their conditions may differ.",
  "data": [
    {"smiles": "COc1ccc2c(c1)[C@]13CCCC[C@@H]1[C@H](C2)N(C)CC3", "note": "[dextromethorphan, (+)-3-methoxy-17-methyl-(9α,13α,14α)-morphinan]", "values": [
      {"measurement": "serious adverse event", "setting": "[1]", "value": "developed an insulin dependent diabetes mellitus"},
      {"measurement": "blood glucose levels during oral glucose tolerance test", "setting": "[2]; 60 mg oral single dose vs placebo", "value": "too low a concentration"},
      {"measurement": "starving blood glucose levels", "setting": "[2]; 270 mg oral single dose", "value": "does not affect starving blood glucose levels"},
      {"measurement": "blood glucose levels during oral glucose tolerance test", "setting": "[2]; 270 mg oral single dose vs placebo", "value": "significantly lowers blood glucose levels after glucose uptake"},
      {"measurement": "hypoglycemic events", "setting": "[2]; 20 patients, oral single doses", "value": "no hypoglycemic events were observed"},
      {"measurement": "glucose-dependent insulin secretion, compared with levorphanol", "setting": "[3]", "value": "significantly more effective in inducing glucose-dependent insulin secretion than levorphanol"},
      {"measurement": "glucose-dependent insulin secretion, compared with levorphanol", "setting": "[3]; listed as DXM", "value": "increase glucose-dependent insulin secretion from pancreatic islets to a significantly larger extent compared to LEV"},
      {"measurement": "efficacy in painful diabetic neuropathy", "setting": "[4]", "value": "effective in treating painful diabetic neuropathy"},
      {"measurement": "effectiveness of the low dose", "setting": "[5]; 1 mg/ml in drinking water", "value": "ineffective"},
      {"measurement": "beta cell area", "setting": "[5]; [8]", "value": "significantly larger"},
      {"measurement": "insulin content of islets", "setting": "[5]; [8]", "value": "significantly increased; also recorded: contained significantly more insulin"},
      {"measurement": "starving blood glucose levels", "setting": "[5]; [8]", "value": "significantly improved starving blood glucose levels; also recorded: lower blood glucose levels or better blood glucose control"}
    ]},
    {"smiles": "CN(C)C(=N)N=C(N)N", "note": "[metformin]", "values": [
      {"measurement": "reduction of diabetes complications and mortality", "setting": "[6]", "value": "about 30%"}
    ]},
    {"smiles": "CN1CC[C@]23CCCC[C@H]2[C@H]1Cc1ccc(O)cc13", "note": "[levorphanol]", "values": [
      {"measurement": "glucose-dependent insulin secretion, compared with levorphanol", "setting": "[3]", "value": "not the levorotatory (−) stereoisomer that mainly targets opioid receptors, increases glucose-dependent insulin secretion to a large extent"}
    ]},
    {"smiles": "COc1ccc(Cl)cc1C(=O)NCCc1ccc(S(=O)(=O)NC(=O)NC2CCCCC2)cc1", "note": "[glibenclamide]", "values": [
      {"measurement": "insulin secretion, basal and glucose-stimulated", "setting": "[7]", "value": "increases both basal (2 mM glucose) and glucose-stimulated (20 mM glucose) insulin secretion"}
    ]}
  ]
}
